The results in this text go back to patent US20130143881A1, “Hydrated Crystalline Forms of N-[3-fluoro-4-(oxy)phenyl]-N'-(4-fluorophenyl)cyclopropane-1,1-dicarboxamide” (Exelixis, Inc., priority 2010, published 2013).

The data set is described as follows: Gravimetric vapor sorption (GVS) study. Conditions: 25° C. and 90 percent humidity. In kind it is physicochemical. The method, then:
A gravimetric vapor sorption (GVS) study was run using a standard procedure. Samples were run on a dynamic vapor sorption analyzer (Surface Measurement Systems) running DVSCFR software. Sample sizes were typically 10 mg. A moisture adsorption desorption isotherm was performed as outlined below. The standard isotherm experiment, performed at 25° C., is a two-cycle run, starting at 40 percent RH, increasing humidity to 90 percent RH, decreasing humidity to 0 percent RH, increasing humidity again to 90 percent RH, and finally decreasing humidity to 0 percent RH in 10 percent RH intervals.

`COc1cc2c(Oc3ccc(NC(=O)C4(C(=O)Nc5ccc(F)cc5)CC4)cc3F)ccnc2cc1OCCCN1CCOCC1` [crystalline Compound (I), N-[3-fluoro-4-({6-(methyloxy)-7-[(3-morpholin-4-ylpropyl)oxy]quinolin-4-yl}oxy)phenyl]-N′-(4-fluorophenyl)cyclopropane-1,1-dicarboxamide crystalline hydrate]: the “weight gain (GVS moisture sorption)” value came out at 2.5%.
